In patent US11498899B2, “Nitrone herbicides” (FMC Corporation, priority 2016, dated 2022):

Experiments:
rice (Oryza sativa) = assay: Test B flooded paddy test, visual rating 0-100 (0 no effect, 100 complete control); settings: Flood, 250 g ai/ha, applied to paddy water, rated after 13 to 15 days
[1] = test system: ragweed (common ragweed, Ambrosia elatior); assay: Test A preemergence, visual injury rating 0-100; assay type: in vivo
[2] = test system: pigweed (Amaranthus retroflexus); assay: Test A preemergence, visual injury rating 0-100; assay type: in vivo
[3] = test system: foxtail, giant (giant foxtail, Setaria faberii); assay: Test A preemergence, visual injury rating 0-100; assay type: in vivo
kochia (Kochia scoparia) [4] = assay: Test A preemergence, visual injury rating 0-100; assay type: in vivo
[5] = test system: ryegrass, Italian (Italian ryegrass, Lolium multiflorum); assay: Test A preemergence, visual injury rating 0-100; assay type: in vivo
[6] = test system: barnyardgrass (Echinochloa crus-galli); assay: Test A preemergence, visual injury rating 0-100 (0 no effect, 100 complete control); assay type: in vivo
[7] = test system: ducksalad (Heteranthera limosa); assay: Test B flooded paddy test, visual rating 0-100; settings: Flood, 250 g ai/ha, applied to paddy water, rated after 13 to 15 days
[8] = test system: ragweed (common ragweed, Ambrosia elatior); assay: Test A postemergence, visual injury rating 0-100; assay type: in vivo; settings: 0 to 100 scale
[9] = test system: pigweed (Amaranthus retroflexus); assay: Test A postemergence, visual injury rating 0-100; assay type: in vivo; settings: 0 to 100 scale
[10] = test system: foxtail, giant (giant foxtail, Setaria faberii); assay: Test A postemergence, visual injury rating 0-100; assay type: in vivo; settings: 0 to 100 scale
[11] = test system: blackgrass (Alopecurus myosuroides); assay: Test A postemergence, visual injury rating 0-100; assay type: in vivo; settings: 0 to 100 scale
[12] = test system: barnyardgrass (Echinochloa crus-galli); assay: Test A postemergence, visual injury rating 0-100; assay type: in vivo; settings: 0 to 100 scale
corn (Zea mays) = assay: Test A postemergence, visual injury rating 0-100; assay type: in vivo; settings: 0 to 100 scale
kochia (Kochia scoparia) [13] = assay: Test A postemergence, visual injury rating 0-100; assay type: in vivo; settings: 0 to 100 scale
[14] = test system: wheat (Triticum aestivum); assay: Test A postemergence, visual injury rating 0-100; assay type: in vivo; settings: 0 to 100 scale
[15] = test system: ryegrass, Italian (Italian ryegrass, Lolium multiflorum); assay: Test A postemergence, visual injury rating 0-100; assay type: in vivo; settings: 0 to 100 scale
[16] = test system: galium (catchweed bedstraw, Galium aparine); assay: Test A postemergence, visual injury rating 0-100; assay type: in vivo; settings: 0 to 100 scale
[17] = test system: barnyardgrass (Echinochloa crus-galli); assay: Test B flooded paddy test, visual rating 0-100; settings: Flood, 250 g ai/ha, applied to paddy water, rated after 13 to 15 days

SMILES | Rice plant response rating (0 to 100 scale) (rice (Oryza sativa)) | Ragweed plant response rating (0 to 100 scale) ([1]; 125 g ai/ha) | Ragweed plant response rating (0 to 100 scale) ([1]; 500 g ai/ha) | Pigweed plant response rating (0 to 100 scale) ([2]; 125 g ai/ha) | Pigweed plant response rating (0 to 100 scale) ([2]; 500 g ai/ha) | Foxtail, Giant plant response rating (0 to 100 scale) ([3]; 125 g ai/ha) | Foxtail, Giant plant response rating (0 to 100 scale) ([3]; 500 g ai/ha) | Kochia plant response rating (0 to 100 scale) (kochia (Kochia scoparia) [4]; 125 g ai/ha) | Kochia plant response rating (0 to 100 scale) (kochia (Kochia scoparia) [4]; 500 g ai/ha) | Ryegrass, Italian plant response rating (0 to 100 scale) ([5]; 125 g ai/ha) | Ryegrass, Italian plant response rating (0 to 100 scale) ([5]; 500 g ai/ha) | Barnyardgrass plant response rating (0 to 100 scale) ([6]; 125 g ai/ha) | Barnyardgrass plant response rating (0 to 100 scale) ([6]; 500 g ai/ha) | Ducksalad plant response rating (0 to 100 scale) [7] | Ragweed plant response rating ([8]; 125 g ai/ha) | Ragweed plant response rating ([8]; 500 g ai/ha) | Pigweed plant response rating ([9]; 125 g ai/ha) | Pigweed plant response rating ([9]; 500 g ai/ha) | Foxtail, Giant plant response rating ([10]; 125 g ai/ha) | Foxtail, Giant plant response rating ([10]; 500 g ai/ha) | also measured
CC1=[N+]([O-])C(C(=O)Nc2cccc(F)c2F)C(c2cc(F)c(F)c(F)c2)C1 (stereo not drawn) [Compound 95] | 0 | 20 | 80 | 20 | 80 | 90 | 100 | 0 | 70 | 30 | 90 | 90 | 90 | 100 | 0 | 20 | 0 | 20 | 80 | 90 | Blackgrass plant response rating ([11]; 125 g ai/ha): 60; Blackgrass plant response rating ([11]; 500 g ai/ha): 70; Barnyardgrass plant response rating ([12]; 125 g ai/ha): 70; Barnyardgrass plant response rating ([12]; 500 g ai/ha): 80; Corn plant response rating (corn (Zea mays); 125 g ai/ha): 0; Corn plant response rating (corn (Zea mays); 500 g ai/ha): 50; Kochia plant response rating (kochia (Kochia scoparia) [13]; 125 g ai/ha): 30; Kochia plant response rating (kochia (Kochia scoparia) [13]; 500 g ai/ha): 50; Wheat plant response rating ([14]; 125 g ai/ha): 10; Wheat plant response rating ([14]; 500 g ai/ha): 60; Ryegrass, Italian plant response rating ([15]; 125 g ai/ha): 40; Ryegrass, Italian plant response rating ([15]; 500 g ai/ha): 70; Galium plant response rating ([16]; 125 g ai/ha): 0; Galium plant response rating ([16]; 500 g ai/ha): 50; Barnyardgrass plant response rating (0 to 100 scale) [17]: 80
COc1cc(OC)cc(C2CC(C)=[N+]([O-])C2C(=O)Nc2cccc(F)c2F)c1 (stereo not drawn) [Compound 96] | 0 | 0 | 0 | 0 | 10 | 90 | 90 | 0 | 40 | 0 | 0 | 90 | 100 | 0 | 0 | 30 | 0 | 0 | 40 | 90 | Blackgrass plant response rating ([11]; 125 g ai/ha): 40; Blackgrass plant response rating ([11]; 500 g ai/ha): 90; Barnyardgrass plant response rating ([12]; 125 g ai/ha): 60; Barnyardgrass plant response rating ([12]; 500 g ai/ha): 90; Corn plant response rating (corn (Zea mays); 125 g ai/ha): 10; Corn plant response rating (corn (Zea mays); 500 g ai/ha): 70; Kochia plant response rating (kochia (Kochia scoparia) [13]; 125 g ai/ha): 0; Kochia plant response rating (kochia (Kochia scoparia) [13]; 500 g ai/ha): 0; Wheat plant response rating ([14]; 125 g ai/ha): 0; Wheat plant response rating ([14]; 500 g ai/ha): 10; Ryegrass, Italian plant response rating ([15]; 125 g ai/ha): 0; Ryegrass, Italian plant response rating ([15]; 500 g ai/ha): 60; Galium plant response rating ([16]; 125 g ai/ha): 0; Galium plant response rating ([16]; 500 g ai/ha): 20; Barnyardgrass plant response rating (0 to 100 scale) [17]: 0
CC1=[N+]([O-])C(C(=O)Nc2cccc(F)c2F)C(c2ccccc2)C1 (stereo not drawn) [Compound 97] | 0 | 40 | 90 | 0 | 60 | 90 | 90 | 50 | 60 | 20 | 90 | 90 | 100 | 100 | 0 | 20 | 0 | 0 | 60 | 90 | Blackgrass plant response rating ([11]; 125 g ai/ha): 30; Blackgrass plant response rating ([11]; 500 g ai/ha): 70; Barnyardgrass plant response rating ([12]; 125 g ai/ha): 70; Barnyardgrass plant response rating ([12]; 500 g ai/ha): 90; Corn plant response rating (corn (Zea mays); 125 g ai/ha): 0; Corn plant response rating (corn (Zea mays); 500 g ai/ha): 0; Kochia plant response rating (kochia (Kochia scoparia) [13]; 125 g ai/ha): 0; Kochia plant response rating (kochia (Kochia scoparia) [13]; 500 g ai/ha): 50; Wheat plant response rating ([14]; 125 g ai/ha): 10; Wheat plant response rating ([14]; 500 g ai/ha): 30; Ryegrass, Italian plant response rating ([15]; 125 g ai/ha): 0; Ryegrass, Italian plant response rating ([15]; 500 g ai/ha): 50; Galium plant response rating ([16]; 125 g ai/ha): 30; Galium plant response rating ([16]; 500 g ai/ha): 50; Barnyardgrass plant response rating (0 to 100 scale) [17]: 70
